Patent US20230226003A1, “NATURAL ANTIBACTERIAL AND ANTIVIRAL BIOLOGICAL COMPOSITIONS, COMPOUNDS, METHOD FOR OBTAINING SAME, AND USE THEREOF” (BEEOTEC HOLDING S/A, priority 2020, published 2023)

System: microorganisms on surfaces of a surgical center
Experiment: Efficiency of disinfectants: reduction of microbial counts on surgical center surfaces
Settings: post- vs pre-disinfection; same letter = no significant difference (p < 0.05)

Row | Structure (SMILES) | Reduction of counts microbial (%)
1 | OCl [0.5% sodium hypochlorite, sodium hypochlorite] | 61 b %
2 | CC(C)O [70% isopropanol, isopropyl alcohol] | 87 a %
